US20050238577A1, “Isolation of epithelial cells or their biochemical contents from excreta after in vivo isotopic labeling” (The Regents of the University of California, priority 2004, published 2005)

Assay: Tolerability of maintained 2H2O body water enrichment
Assay type: in vivo
Details: 1-10% of total body water labeled, maintained for weeks or months in humans (>100 people) and experimental animals; rapid changes in enrichment prevented
Excerpt: Relatively high body water enrichments of ^2H2O (e.g., 1-10% of the total body water is labeled) may be achieved relatively inexpensively using the techniques of the invention. […] This finding in a large number of human subjects (>100 people) is contrary to previous concerns about vestibular toxicities at high doses of ^2H2O. The Applicant has discovered that as long as rapid changes in body water enrichment are prevented (e.g., by initial administration in small, divided doses), high body water enrichments of ^2H2O can be maintained with no toxicities. For example, the low expense of commercially available ^2H2O allows long-term maintenance of enrichments in the 1-5% range at relatively low expense (e.g., calculations reveal a lower cost for 2 months labeling at 2% ^2H2O enrichment, and thus 7-8% enrichment in the alanine precursor pool, than for 12 hours labeling of ^2H-leucine at 10% free leucine enrichment, and thus 7-8% enrichment in leucine precursor pool for that period).

[2H]O[2H] [^2H2O, deuterated water]
toxicity at maintained body water enrichment: without any evidence of toxicity
